Entries after “also recorded” stand apart in the source; their conditions may differ.
What was measured:
Stat1:Stat1 = target: T1, Stat1:Stat1 (Mus musculus, UniProt P42225); assay: Stat1 DNA-binding activity, EMSA with MGFe probe, nuclear extracts of EGF-stimulated NIH3T3/hEGFR; format: biochemical; conditions: for effect on Stat1:Stat1 DNA-binding activity: EMSA, MGFe probe; for disruption of Stat1 DNA-binding activity: concentrations up to 20 μM
T1 construct: endogenous in cells; host or cells: EGF-stimulated NIH3T3/hEGFR (nuclear extract)
T1 sequence (P42225 2-749 limits assumed): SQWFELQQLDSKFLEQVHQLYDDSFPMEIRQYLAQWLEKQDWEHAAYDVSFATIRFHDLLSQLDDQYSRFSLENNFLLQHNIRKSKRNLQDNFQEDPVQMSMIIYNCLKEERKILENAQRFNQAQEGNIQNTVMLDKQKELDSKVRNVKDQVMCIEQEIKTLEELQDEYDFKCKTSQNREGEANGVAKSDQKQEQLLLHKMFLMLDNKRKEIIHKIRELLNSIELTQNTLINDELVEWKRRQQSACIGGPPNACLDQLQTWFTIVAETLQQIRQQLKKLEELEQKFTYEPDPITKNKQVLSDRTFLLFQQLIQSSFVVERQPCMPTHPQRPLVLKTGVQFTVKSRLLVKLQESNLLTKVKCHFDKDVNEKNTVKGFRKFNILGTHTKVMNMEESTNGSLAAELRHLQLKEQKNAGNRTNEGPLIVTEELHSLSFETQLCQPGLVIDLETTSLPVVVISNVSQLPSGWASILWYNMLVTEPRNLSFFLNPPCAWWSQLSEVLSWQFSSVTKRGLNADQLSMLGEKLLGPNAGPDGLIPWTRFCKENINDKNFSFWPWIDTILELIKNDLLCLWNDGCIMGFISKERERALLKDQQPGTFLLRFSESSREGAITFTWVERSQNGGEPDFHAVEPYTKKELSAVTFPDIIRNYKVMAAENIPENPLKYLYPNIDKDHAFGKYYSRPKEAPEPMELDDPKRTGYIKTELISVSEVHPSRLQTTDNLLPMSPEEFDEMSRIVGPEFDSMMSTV
Description: Nuclear extract preparations and electrophoretic mobility shift assay (EMSA) were carried out as previously described. Yu et al., 1995; Turkson et al., Stat3 activation by Src induces specific gene regulation and is required for cell transformation. Mol. Cell. Biol. 18:2545-2552 (1998). The ^32P-labeled oligonucleotide probes used were hSIE (high affinity sis-inducible element from the c-fos gene, m67 variant, 5′-[…]) (SEQ ID NO: 1) that binds Stat1 and Stat3 and MGFe (mammary gland factor element from the bovine β-casein gene promoter, 5′-[…]) (SEQ ID NO: 2) for Stat1 and Stat5 binding. Wagner et al., The SIF binding element confers sis/PDGF inducibility onto the c-fos promoter. EMBO J. 9:4477-4484 (1990); Gouilleux et al., Prolactin and interleukin-2 receptors in T lymphocytes signal through a MGF-STATS-like transcription factor. Endocrinology 136:5700-5708 (1995). Except where indicated, nuclear extracts were pre-incubated with compound for 30 min at room temperature prior to incubation with the radiolabeled probe for 30 min at 30° C. before subjecting to EMSA analysis. Bands corresponding to DNA-binding activities were scanned and quantified for each concentration of compound using ImageQuant and plotted as percent of control (vehicle) against concentration of compound, from which the IC50 values were derived, as previously reported. […] J Biol Chem. 280:32979-32988 (2005).
[…]. Zhang et al. (2012). […]. Siddiquee et al., Selective chemical probe inhibitor of Stat3, identified through structure-based virtual screening, induces antitumor activity, Proc Natl Acad Sci USA. 104:7391-7396 (2007).

[1] = test system: pY1068EGFR, pY416Src, pJak2, pShc, pErk1/2, pS473Akt; format: cell-based, human; conditions: concentrations that inhibit intracellular Stat3 activation (3-10 μM)
Source text: (§1) FIG. 2. […] Positions of STATs:DNA complexes or proteins in gel are labeled; control lanes (0) represent nuclear extracts treated with 0.05% DMSO, or nuclear extracts or whole-cell lysates prepared from 0.05% DMSO-treated cells. Values shown in each panel are means plus standard deviations of at least four independent transfections, each performed in triplicate. For each transfection, luciferase activity was normalized to transfection efficiency, with β-Gal activity as an internal control. *-<0.05. Data are representative of 3-4 independent determinations. FIG. 2 (H). […] FIG. 2 (I).
(§2) Turkson et al., Novel peptidomimetic inhibitors of signal transducer and activator of transcription 3 dimerization and biological activity. […] Mol. Cell. […] Mol. Cell. […] Mol. Cell.

[2] = test system: Bcl-2, Bcl-xL, Cyclin D1, c-Myc, and Survivin; assay: Immunoblotting of Stat3-regulated gene expression; conditions: MDA-MB-231 and U251 cells; 24 h-treatment (5 uM)
[3] = test system: Stat3-dependent luciferase reporter, pLucTKS3; assay: Stat3-dependent luciferase reporter in NIH3T3 co-transfected with v-Src; format: cell-based, mouse; conditions: 3 or 5 μM
Source text: as §1, §2

[4] = test system: Stat3-independent luciferase reporter, pLucSRE; assay: Stat3-independent luciferase reporter in NIH3T3 co-transfected with v-Src; format: cell-based, mouse; conditions: similar treatment (3 or 5 μM)
Source text: as §1, §2

U251 cells = assay: Intracellular levels by LC-MS of cell extracts; format: in vitro ADME, human; conditions: U251 cells treated once with 5 μM
Source text: The intracellular and tissue levels of SH5-07 were studied, following a single treatment.

[5] = In vivo pharmacokinetic analysis, serum and brain tissue levels; design: species or system mouse; conditions: mice, single dose tail vein injection 3 mg/kg
[6] = test system: glioma, breast cancer or pancreatic cancer; assay: Treatment of subjects with cancer; format: in vivo; conditions: intravenous or oral, 0.08 mg/kg to 0.4 mg/kg
pY705Stat3 = pY705Stat3 (Mus musculus, UniProt P42227); assay: EGF-induced Stat3 phosphorylation in NIH3T3/hEGFR, immunoblotting; conditions: cells pre-treated for 24 h, 10 μM
Sequence of pY705Stat3 (P42227 whole entry): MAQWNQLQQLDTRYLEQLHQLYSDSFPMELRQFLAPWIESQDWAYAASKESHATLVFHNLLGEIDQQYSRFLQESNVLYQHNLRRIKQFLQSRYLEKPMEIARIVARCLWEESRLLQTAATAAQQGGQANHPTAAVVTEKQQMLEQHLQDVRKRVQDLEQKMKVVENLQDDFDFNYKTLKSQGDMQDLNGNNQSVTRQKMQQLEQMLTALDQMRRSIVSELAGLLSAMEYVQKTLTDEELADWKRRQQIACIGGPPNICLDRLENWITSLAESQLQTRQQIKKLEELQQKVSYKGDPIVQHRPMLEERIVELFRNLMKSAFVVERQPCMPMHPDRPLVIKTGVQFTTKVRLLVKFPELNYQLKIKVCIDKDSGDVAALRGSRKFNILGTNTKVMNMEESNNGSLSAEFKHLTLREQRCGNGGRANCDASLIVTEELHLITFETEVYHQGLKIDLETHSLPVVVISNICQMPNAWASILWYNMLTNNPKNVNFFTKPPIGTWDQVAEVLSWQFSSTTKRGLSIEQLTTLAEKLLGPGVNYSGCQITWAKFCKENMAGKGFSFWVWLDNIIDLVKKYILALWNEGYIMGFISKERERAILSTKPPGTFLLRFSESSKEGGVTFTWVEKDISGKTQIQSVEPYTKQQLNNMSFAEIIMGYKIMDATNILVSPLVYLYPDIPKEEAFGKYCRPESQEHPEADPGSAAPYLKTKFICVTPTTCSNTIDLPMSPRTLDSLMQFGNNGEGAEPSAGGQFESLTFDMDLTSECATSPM
Source text: (§3) Primary antibodies used were anti-Stat3, pY705Stat3, pY416Src, Src, pErk1/2, Erk1/2, EGFR, pEGFR, pJAK2, c-Myc, Bcl-xL, Bcl-2, Survivin, and β-Actin (Cell Signaling, Danvers), and VEGF (Santa Cruz Biotech, Santa Cruz).

EGF receptor and Stat3 = EGF receptor and Stat3 (Mus musculus, UniProt P42227); assay: Co-immunoprecipitation of EGF receptor and Stat3 in EGF-stimulated NIH3T3/EGFR; conditions: pre-treatment 10 μM for 5 min to 24 h
Sequence of EGF receptor and Stat3 (P42227 2-770 limits assumed): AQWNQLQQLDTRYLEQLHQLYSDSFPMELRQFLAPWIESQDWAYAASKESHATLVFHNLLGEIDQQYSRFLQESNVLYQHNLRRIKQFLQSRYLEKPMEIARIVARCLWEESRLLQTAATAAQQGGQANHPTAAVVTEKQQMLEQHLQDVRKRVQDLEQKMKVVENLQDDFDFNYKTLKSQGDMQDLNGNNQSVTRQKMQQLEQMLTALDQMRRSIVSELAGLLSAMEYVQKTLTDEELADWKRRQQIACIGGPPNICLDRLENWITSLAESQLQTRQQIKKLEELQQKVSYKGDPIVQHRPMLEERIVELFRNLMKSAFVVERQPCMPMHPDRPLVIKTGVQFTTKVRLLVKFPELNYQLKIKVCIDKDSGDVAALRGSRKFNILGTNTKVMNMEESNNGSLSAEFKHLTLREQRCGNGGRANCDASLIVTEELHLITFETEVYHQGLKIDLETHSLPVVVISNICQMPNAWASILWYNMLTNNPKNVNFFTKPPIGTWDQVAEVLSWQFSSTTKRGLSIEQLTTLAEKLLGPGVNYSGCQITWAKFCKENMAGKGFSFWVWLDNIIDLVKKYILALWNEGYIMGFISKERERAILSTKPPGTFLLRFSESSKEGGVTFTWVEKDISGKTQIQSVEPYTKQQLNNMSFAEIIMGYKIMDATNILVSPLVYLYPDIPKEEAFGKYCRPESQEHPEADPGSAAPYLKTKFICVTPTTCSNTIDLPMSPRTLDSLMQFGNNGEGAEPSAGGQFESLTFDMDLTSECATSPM
Source text: as §3

Row | Compound | effect on Stat1:Stat1 DNA-binding activity (Stat1:Stat1) | disruption of Stat1 DNA-binding activity (Stat1:Stat1) | effect on phosphorylation of EGFR, Src, Jak2, Shc, ERK1/2, Akt [1] | expression of Stat3-regulated genes [2] | induction by v-Src of pLucTKS3 luciferase reporter [3] | induction of pLucSRE luciferase reporter [4] | intracellular levels at 1 h (U251 cells) | intracellular levels at 6 h (U251 cells) [µM] | intracellular levels at 24 h (U251 cells) | average level in brain tissue at 10 min [5] [fmole/mg tissue] | average level in brain tissue at 60 min [5] [fmole/mg tissue] | concentration at 10 min ([5]; mouse, serum, intravenous, read-out: average level in serum at 10 min post-dosing) [µM] | concentration at 60 min ([5]; mouse, serum, intravenous, read-out: average level in serum at 60 min) [µM] | tumor response in subjects [6] | EGF-induced Stat3 phosphorylation (pY705Stat3) (pY705Stat3) | co-IP between EGF receptor and Stat3 promoted by EGF (EGF receptor and Stat3)
1 | CN(CC(=O)N(Cc1ccc(C2CCCCC2)cc1)c1ccc(C(=O)O)cc1)S(=O)(=O)c1c(F)c(F)c(F)c(F)c1F [SH4-54] | little or no effect; also recorded: minimal effects | little or no disruption | little or no effect | down-regulated |  |  |  |  |  |  |  |  |  |  |  | 
2 | CN(CC(=O)N(Cc1ccc(C2CCCCC2)cc1)c1ccc(C(=O)NO)cc1)S(=O)(=O)c1c(F)c(F)c(F)c(F)c1F [SH5-07] | little or no effect; also recorded: minimal effects | little or no disruption |  | down-regulated; also recorded: significantly suppressed | significantly (p<0.01) inhibited | no attenuating effect | 1,238±181 μM | 27.6 | background levels | 7.76 | 8.19 | 13.5 | 4.67 | shrinkage of the tumors, or slowing of the progession of tumor growth is observed | inhibited | suppressed

From patent US9802888B2, “STAT3 inhibitors” (UNIVERSITY OF HAWAII, priority 2013, dated 2017)
